What all share (format): biochemical
The target of test [1] is T1, VEGFR2 (Homo sapiens, UniProt P35968).
T1 construct: purchased Carna 08-191
The experiment in a line: Assay I: VEGFR2 kinase inhibition (HTRF KinEASE-TK). As to conditions: ATP 5 μM, substrate TK 1 μM. How it is done: (§1) Assay I: Determination of Inhibitory Activity Against FGFR Mutants
(§2) 1. Reagents and Equipment
(§3) 2.1 Preparation of 1× Kinase Reaction Buffer:
(§4) 1× Kinase reaction buffer was formulated with 1× volume of 5× kinase reaction buffer and 4× volume of water; 5 mM MgCl2; and 1 mM DTT.
(§5) 2.3 Screening of Compounds:
(§6) 1. Diluting a compound 4-fold in a dilution plate with DMSO, with a starting compound concentration of 2 mM.
(§7) 2. Diluting the compound 40-fold into 1× kinase reaction buffer and shaking it on a shaker for 20 minutes.
3. Formulating 2×FGFR1 V561M/FGFR2 V564F/FGFR3 K650E/VEGFR2 with 1× of enzyme reaction buffer.
4. Adding 2 μl FGFR1 V561M/FGFR2 V564F/FGFR3 K650E/VEGFR2 kinase (formulated in step 3) to each well of the reaction plate.
(§8) 5. Adding 1 μl of the compound diluted in buffer to each well, sealing the plate with a sealing membrane and centrifuging the plate at 1000 g for 30 seconds and leaving it at room temperature for 10 minutes.
(§9) 6. Formulating 2.5×TK-substrate-biotin and ATP mixture with 1× enzyme reaction buffer and adding 2 μl of K-substrate-biotin/ATP mixture to the reaction plate.
(§10) 7. Sealing the plate with a sealing membrane and centrifuging the plate at 1000 g for 30 seconds and allowing it to react at room temperature for 50 minutes.
(§11) 8. Formulating 4× Sa-XL 665 (250 nM) with HTRF assay buffer.
(§12) 9. Adding 5 μl Sa-XL 665 and 5 μl TK-Antibody-Cryptate to each well, centrifuging it at 1000 g for 30 seconds, and allowing it to react for 1 hour at room temperature.
(§13) 10. Reading fluorescence signals at 615 nm (Cryptate) and 665 nm (XL665) with Biotek.
(§14) 3.1 Calculation of the ratio for each well: the ratio was calculated as 665/615 nm.
(§15) 3.3 Calculation of IC50 and plotting of inhibition curves for the compounds.
(§16) The IC50 (half inhibition concentration) of a compound was obtained using the following non-linear fitting equation, wherein data analysis was performed using Graphpad 6.0 software.
(§17) Y=Bottom+(Top−Bottom)/(1+10^((Log IC50−X)*Hill Slope)) • X: log value of compound concentration; and Y: inhibition rate (% inh)
(§18) 3.4 Validation of Results
(§19) Data were exported from Envision and analyzed manually. The ratios were converted to inhibition rates and IC50 was calculated by Prism GraphPad 6.0 from the inhibition rates. IC50 was calculated again by the ratios to verify accuracy of the results.
Positive control IC50 was within 3 times of the average value
For orientation: In TR-FRET formats the signal depends on donor and acceptor labels being close together.

Test [2] addresses T2, FGFR2 V564F (Homo sapiens, UniProt P21802, V564F).
T2 construct: purchased Signalchem F05-12FG
The experiment in a line: Assay I: inhibitory activity against FGFR mutants (HTRF KinEASE-TK). To be noted: ATP 10 μM, substrate TK 1 μM. The procedure: as §1, §2, §3, §4, §5, §6, §7, §8, §9, §10, §11, §12, §13, §14, §15, §16, §17, §18, §19

The target in test [3] is T3, FGFR1 V561M (Homo sapiens, UniProt P11362, V561M).
T3 construct: purchased Signalchem F04-13G
The description is as above. To be noted: ATP 5 μM, substrate TK 1 μM. How it is done:
as §1, §2, §3, §4, §5, §6, §7, §8, §9, §10, §11, §12, §13, §14, §15, §16, §17, §18, §19

Test [4] addresses T4, FGFR3 V555M (Homo sapiens, UniProt P22607, V555M).
T4 construct: purchased Signalchem F06-12GG
The description is as above. To be noted: ATP 20 μM, substrate TK 1 μM. The procedure:
as §1, §2, §3, §4, §5, §6, §7, §8, §9, §10, §11, §12, §13, §14, §15, §16, §17, §18, §19

T2 sequence (P21802 22-821 V564F): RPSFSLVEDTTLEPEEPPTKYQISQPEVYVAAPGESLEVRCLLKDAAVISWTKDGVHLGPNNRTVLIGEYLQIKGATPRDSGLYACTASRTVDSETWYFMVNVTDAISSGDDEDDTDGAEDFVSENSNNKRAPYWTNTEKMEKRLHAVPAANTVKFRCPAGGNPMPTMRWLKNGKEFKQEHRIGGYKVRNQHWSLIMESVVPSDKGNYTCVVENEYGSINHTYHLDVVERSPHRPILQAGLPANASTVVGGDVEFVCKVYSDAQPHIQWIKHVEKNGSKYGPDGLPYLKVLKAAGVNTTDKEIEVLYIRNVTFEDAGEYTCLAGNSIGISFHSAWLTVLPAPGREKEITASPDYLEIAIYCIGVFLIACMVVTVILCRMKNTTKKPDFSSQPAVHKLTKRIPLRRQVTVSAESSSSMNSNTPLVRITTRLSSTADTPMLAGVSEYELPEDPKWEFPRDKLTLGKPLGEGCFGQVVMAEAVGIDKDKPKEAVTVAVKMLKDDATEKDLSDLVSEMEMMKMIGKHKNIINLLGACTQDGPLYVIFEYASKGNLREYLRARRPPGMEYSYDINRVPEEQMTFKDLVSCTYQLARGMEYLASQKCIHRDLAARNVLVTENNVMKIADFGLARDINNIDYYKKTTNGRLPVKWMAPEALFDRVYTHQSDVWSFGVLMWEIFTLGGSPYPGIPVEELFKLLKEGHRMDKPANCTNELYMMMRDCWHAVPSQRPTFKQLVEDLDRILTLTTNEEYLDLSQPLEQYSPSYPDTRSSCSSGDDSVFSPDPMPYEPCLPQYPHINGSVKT
T3 sequence (P11362 22-822 V561M): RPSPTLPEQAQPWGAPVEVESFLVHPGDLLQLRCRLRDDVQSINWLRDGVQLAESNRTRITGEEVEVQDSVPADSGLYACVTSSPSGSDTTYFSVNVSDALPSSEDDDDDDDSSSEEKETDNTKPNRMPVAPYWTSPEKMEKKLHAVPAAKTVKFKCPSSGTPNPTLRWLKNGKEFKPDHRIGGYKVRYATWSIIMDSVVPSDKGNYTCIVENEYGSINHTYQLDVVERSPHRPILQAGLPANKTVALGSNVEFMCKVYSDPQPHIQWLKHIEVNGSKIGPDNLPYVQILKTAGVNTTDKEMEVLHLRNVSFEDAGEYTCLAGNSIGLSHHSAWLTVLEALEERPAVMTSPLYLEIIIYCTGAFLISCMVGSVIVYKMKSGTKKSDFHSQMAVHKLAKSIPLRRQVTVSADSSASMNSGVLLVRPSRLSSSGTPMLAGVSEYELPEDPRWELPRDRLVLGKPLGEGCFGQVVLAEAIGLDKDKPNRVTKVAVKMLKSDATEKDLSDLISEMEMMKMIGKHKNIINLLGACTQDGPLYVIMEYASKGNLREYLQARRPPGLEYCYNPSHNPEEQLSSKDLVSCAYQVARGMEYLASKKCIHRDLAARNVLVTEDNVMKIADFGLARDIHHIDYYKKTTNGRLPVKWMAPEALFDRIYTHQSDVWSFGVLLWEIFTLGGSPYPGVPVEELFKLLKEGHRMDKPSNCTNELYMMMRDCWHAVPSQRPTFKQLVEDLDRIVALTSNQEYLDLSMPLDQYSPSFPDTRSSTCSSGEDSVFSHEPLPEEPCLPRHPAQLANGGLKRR
T4 sequence (P22607 397-806 V555M limits assumed): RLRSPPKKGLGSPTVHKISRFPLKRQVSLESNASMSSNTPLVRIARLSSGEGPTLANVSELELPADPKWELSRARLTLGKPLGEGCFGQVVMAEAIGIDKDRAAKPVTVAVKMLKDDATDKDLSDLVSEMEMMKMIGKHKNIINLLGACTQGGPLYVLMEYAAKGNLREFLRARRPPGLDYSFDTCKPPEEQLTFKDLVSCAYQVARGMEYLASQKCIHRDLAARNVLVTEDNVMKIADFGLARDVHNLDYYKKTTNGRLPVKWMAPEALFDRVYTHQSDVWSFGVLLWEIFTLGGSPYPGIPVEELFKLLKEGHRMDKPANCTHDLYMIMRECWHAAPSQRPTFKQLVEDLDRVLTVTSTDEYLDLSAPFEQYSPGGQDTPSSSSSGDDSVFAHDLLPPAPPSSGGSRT
T1 sequence (P35968 20-1356): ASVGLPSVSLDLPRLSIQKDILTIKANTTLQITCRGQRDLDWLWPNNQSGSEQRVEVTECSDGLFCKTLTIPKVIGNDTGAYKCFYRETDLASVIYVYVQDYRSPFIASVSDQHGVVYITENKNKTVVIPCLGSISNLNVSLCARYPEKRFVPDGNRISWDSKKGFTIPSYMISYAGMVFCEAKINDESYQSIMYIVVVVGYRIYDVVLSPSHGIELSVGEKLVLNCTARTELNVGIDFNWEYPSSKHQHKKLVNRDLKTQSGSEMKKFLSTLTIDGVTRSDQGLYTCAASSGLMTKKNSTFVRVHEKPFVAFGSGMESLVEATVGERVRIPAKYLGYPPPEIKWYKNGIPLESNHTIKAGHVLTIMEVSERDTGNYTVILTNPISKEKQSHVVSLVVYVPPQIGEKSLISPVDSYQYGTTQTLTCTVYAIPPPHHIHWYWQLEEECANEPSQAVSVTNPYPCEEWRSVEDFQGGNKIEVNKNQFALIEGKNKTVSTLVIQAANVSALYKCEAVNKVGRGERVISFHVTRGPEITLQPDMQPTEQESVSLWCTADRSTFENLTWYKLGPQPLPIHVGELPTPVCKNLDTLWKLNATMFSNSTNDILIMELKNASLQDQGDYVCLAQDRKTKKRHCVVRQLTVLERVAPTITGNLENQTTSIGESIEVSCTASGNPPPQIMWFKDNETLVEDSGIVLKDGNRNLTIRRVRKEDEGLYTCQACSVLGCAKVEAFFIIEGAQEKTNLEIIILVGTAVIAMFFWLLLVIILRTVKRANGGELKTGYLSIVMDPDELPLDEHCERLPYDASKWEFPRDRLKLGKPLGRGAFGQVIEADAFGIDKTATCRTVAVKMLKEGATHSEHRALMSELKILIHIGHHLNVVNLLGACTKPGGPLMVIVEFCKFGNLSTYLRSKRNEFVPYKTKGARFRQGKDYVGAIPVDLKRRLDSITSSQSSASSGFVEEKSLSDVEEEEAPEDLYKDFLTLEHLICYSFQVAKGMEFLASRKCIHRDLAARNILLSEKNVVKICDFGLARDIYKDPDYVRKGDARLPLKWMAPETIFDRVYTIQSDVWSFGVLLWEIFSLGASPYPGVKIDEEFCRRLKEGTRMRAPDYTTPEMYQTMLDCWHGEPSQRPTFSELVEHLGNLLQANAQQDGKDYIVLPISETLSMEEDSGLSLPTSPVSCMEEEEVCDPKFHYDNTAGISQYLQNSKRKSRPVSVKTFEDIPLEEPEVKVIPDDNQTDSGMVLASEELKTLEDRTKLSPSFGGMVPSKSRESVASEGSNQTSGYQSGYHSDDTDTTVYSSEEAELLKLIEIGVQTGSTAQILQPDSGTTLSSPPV

A word on the IC50: it is the midpoint of a concentration-inhibition curve. Low values mean greater potency, high ones weaker potency. `CC(Oc1ccc2[nH]nc(-c3nc4c([nH]3)CNC4)c2c1)c1c(Cl)cncc1Cl` (centres unmarked) [Compound 19, 5-(1-(3,5-dichloropyridin-4-yl)ethoxy)-3-(1,4,5,6-tetrahydropyrrolo[3,4-d]imidazol-2-yl)-1H-indazole]: the IC50 was found to be 31 nM in test [1], 0.59 nM in test [2], 0.6 nM in test [3] and 0.76 nM in test [4].

Take `CC(Oc1ccc2[nH]nc(-c3nc4c([nH]3)CN(C3CC(O)C3)C4)c2c1)c1c(Cl)cncc1Cl` (centres unmarked) [Compound 21, 3-(2-(5-(1-(3,5-dichloropyridin-4-yl)ethoxy)-1H-indazol-3-yl)-4,6-dihydropyrrolo[3,4-d]imidazol-5(1H)-yl)cyclobutan-1-ol]: the IC50 was 26 nM in test [1], 0.66 nM in test [2], 0.97 nM in test [3] and 0.64 nM in test [4].

Consider `CC(Oc1ccc2[nH]nc(-c3nc4c([nH]3)CN(C3CCC(O)CC3)C4)c2c1)c1c(Cl)cncc1Cl` (centres unmarked) [Compound 22, 4-(2-(5-(1-(3,5-dichloropyridin-4-yl)ethoxy)-1H-indazol-3-yl)-4,6-dihydropyrrolo[3,4-d]imidazol-5(1H)-yl)cyclohexan-1-ol], for which the IC50 in test [1] amounted to 11.7 nM; in test [2] it was 0.76 nM; in test [3], 1.8 nM; in test [4], 0.91 nM.

Regarding `CCOC(=O)N1Cc2nc(-c3n[nH]c4ccc(OC(C)c5c(Cl)cncc5Cl)cc34)[nH]c2C1` (centres unmarked) [Compound 23, Ethyl 2-(5-(1-(3,5-dichloropyridin-4-yl)ethoxy)-1H-indazol-3-yl)-4,6-dihydropyrrolo[3,4-d]imidazole-5(1H)-carboxylate], the concentration for half-maximal inhibition (IC50) in test [1] is 85 nM; in test [2], 0.48 nM; in test [3], 1.2 nM; in test [4], 1.3 nM.

Turning to `CC(Oc1ccc2[nH]nc(-c3nc4c([nH]3)CN(C(=O)OCCC#N)C4)c2c1)c1c(Cl)cncc1Cl` (centres unmarked) [Compound 24, 2-cyanoethyl 2-(5-(1-(3,5-dichloropyridin-4-yl)ethoxy)-1H-indazol-3-yl)-4,6-dihydropyrrolo[3,4-d]imidazole-5(1H)-carboxylate], the IC50 was found to be 27.5 nM in test [1], 1.4 nM in test [2], 2.4 nM in test [3] and 4.6 nM in test [4].

As to `CC(Oc1ccc2[nH]nc(-c3nc4c([nH]3)CN(C(=O)C3CC3)C4)c2c1)c1c(Cl)cncc1Cl` (centres unmarked) [Compound 25, Cyclopropyl (2-(5-(1-(3,5-dichloropyridin-4-yl)ethoxy)-1H-indazol-3-yl)-4,6-dihydropyrrolo[3,4-d]imidazol-5(1H)-yl)ketone], the concentration for half-maximal inhibition (IC50) in test [1] came out at 10 nM; in test [2], 0.41 nM; in test [3], 0.98 nM; in test [4] it was 0.26 nM.

Regarding `CC(Oc1ccc2[nH]nc(-c3nc4c([nH]3)CN(C(=O)C3CC(O)C3)C4)c2c1)c1c(Cl)cncc1Cl` (centres unmarked) [Compound 26, (2-(5-(1-(3,5-dichloropyridin-4-yl)ethoxy)-1H-indazol-3-yl)-4,6-dihydropyrrolo[3,4-d]imidazol-5(1H)-yl)(3-hydroxycyclobutyl)ketone], the IC50 was 7.1 nM in test [1], 0.17 nM in test [2], 0.38 nM in test [3] and 0.13 nM in test [4].

In the case of `CC(Oc1ccc2[nH]nc(-c3nc4c([nH]3)CN(C(=O)CC#N)C4)c2c1)c1c(Cl)cncc1Cl` (centres unmarked) [Compound 27, 3-(2-(5-(1-(3,5-dichloropyridin-4-yl)ethoxy)-1H-indazol-3-yl)-4,6-dihydropyrrolo[3,4-d]imidazol-5(1H)-yl)-3-oxopropionitrile], the IC50 in test [1] stood at 37.5 nM; in test [2], 0.16 nM; in test [3], 0.94 nM; in test [4], 0.4 nM.

Regarding `CCS(=O)(=O)N1Cc2nc(-c3n[nH]c4ccc(OC(C)c5c(Cl)cncc5Cl)cc34)[nH]c2C1` (centres unmarked) [Compound 28, 5-(1-(3,5-dichloropyridin-4-yl)ethoxy)-3-(5-(ethylsulfonyl)-1,4,5,6-tetrahydropyrrolo[3,4-d]imidazol-2-yl)-1H-indazole], the half-maximal inhibitory concentration (IC50) in test [1] worked out at 30 nM; in test [2] it was 0.3 nM; in test [3], 1.6 nM; in test [4] it was 0.52 nM.

For the molecule `CC(Oc1ccc2[nH]nc(-c3nc4c([nH]3)CN(S(=O)(=O)C3CC3)C4)c2c1)c1c(Cl)cncc1Cl` (centres unmarked) [Compound 29, 3-(5-(Cyclopropylsulfonyl)-1,4,5,6-tetrahydropyrrolo[3,4-d]imidazol-2-yl)-5-(1-(3,5-dichloropyridin-4-yl)ethoxy)-1H-indazole], the IC50 in test [1] is 64 nM; in test [2] it was 1.6 nM; in test [3] it was 1.2 nM; in test [4], 0.7 nM.

As for `CC(Oc1ccc2[nH]nc(-c3nc4c([nH]3)CN(S(=O)(=O)C(C)C)C4)c2c1)c1c(Cl)cncc1Cl` (centres unmarked) [Compound 30, 5-(1-(3,5-dichloropyridin-4-yl)ethoxy)-3-(5-(isopropylsulfonyl)-1,4,5,6-tetrahydropyrrolo[3,4-d]imidazol-2-yl)-1H-indazole], the IC50 was determined as 96 nM in test [1], 0.3 nM in test [2], 0.4 nM in test [3] and 0.6 nM in test [4].

As for `CC(Oc1ccc2[nH]nc(-c3nc4c([nH]3)CN(C(=O)CN3CCC(O)C3)C4)c2c1)c1c(Cl)cncc1Cl` (centres unmarked) [Compound 31, 1-(2-(5-(1-(3,5-dichloropyridin-4-yl)ethoxy)-1H-indazol-3-yl)-4,6-dihydropyrrolo[3,4-d]imidazol-5(1H)-yl)-2-(3-hydroxypyrrolidin-1-yl)ethan-1-one], the IC50 was found to be 14 nM in test [1], 0.15 nM in test [2], 0.67 nM in test [3] and 0.1 nM in test [4].

With `CC(Oc1ccc2[nH]nc(-c3nc4c([nH]3)CN(C(=O)CN3CCC(C#N)C3)C4)c2c1)c1c(Cl)cncc1Cl` (centres unmarked) [Compound 32, 1-(2-(2-(5-(1-(3,5-dichloropyridin-4-yl)ethoxy)-1H-indazol-3-yl)-4,6-dihydropyrrolo[3,4-d]imidazol-5(1H)-yl)-2-oxoethyl)pyrrolidine-3-carbonitrile], the IC50 came out at 3.7 nM in test [1], 1.2 nM in test [2], 1.1 nM in test [3] and 0.19 nM in test [4].

As for `CNC(=O)N1Cc2nc(-c3n[nH]c4ccc(O[C@H](C)c5c(Cl)cncc5Cl)cc34)[nH]c2C1` [Compound 33, (R)-2-(5-(1-(3,5-dichloropyridin-4-yl)ethoxy)-1H-indazol-3-yl)-N-methyl-4,6-dihydropyrrolo[3,4-d]imidazole-5(1H)-carboxamide], the IC50 in test [1] was 6.3 nM; in test [2], 0.45 nM; in test [3] it was 1.3 nM; in test [4], 0.46 nM.

As to `C[C@@H](Oc1ccc2[nH]nc(-c3nc4c([nH]3)CN(C(=O)N(C)C)C4)c2c1)c1c(Cl)cncc1Cl` [Compound 34, (R)-2-(5-(1-(3,5-dichloropyridin-4-yl)ethoxy)-1H-indazol-3-yl)-N,N-dimethyl-4,6-dihydropyrrolo[3,4-d]imidazole-5(1H)-carboxamide], the IC50 stood at 1.7 nM in test [1], 0.29 nM in test [2], 0.46 nM in test [3] and 0.27 nM in test [4].

For the molecule `C[C@@H](Oc1ccc2[nH]nc(-c3nc4c([nH]3)CN(C3CCN(C)C3)C4)c2c1)c1c(Cl)cncc1Cl` (stereo partly drawn) [Compound 36, 5-((R)-1-(3,5-Dichloropyridin-4-yl)ethoxy)-3-(5-(1-methylpyrrolidin-3-yl)-1,4,5,6-tetrahydropyrrolo[3,4-d]imidazol-2-yl)-1H-indazole], the IC50 in test [1] was determined as 27.5 nM; in test [2], 0.61 nM; in test [3], 1.9 nM; in test [4], 0.31 nM.

Consider `CC(C1CCN(C)CC1)N1Cc2nc(-c3n[nH]c4ccc(O[C@H](C)c5c(Cl)cncc5Cl)cc34)[nH]c2C1` (stereo partly drawn) [Compound 37, 5-((R)-1-(3,5-Dichloropyridin-4-yl)ethoxy)-3-(5-(1-(1-methylpiperidin-4-yl)ethyl)-1,4,5,6-tetrahydropyrrolo[3,4-d]imidazol-2-yl)-1H-indazole], for which the IC50 in test [1] came to 49.3 nM; in test [2] it was 0.68 nM; in test [3] it was 3.9 nM; in test [4] it was 0.58 nM.

Values taken from US20230374025A1, “FGFR INHIBITOR COMPOUND AND USE THEREOF” (SHENZHEN KANGSU PHARMACEUTICAL TECHNOLOGY CO., LTD., priority 2021, published 2023).
